Laboratory results reported in Sander's compilation of Henry's law constants (doi:10.1021/es00081a021).

assay: Henry solubility constant Hcp at 298.15 K (mol/(m3 Pa)); conditions: reference: Brunner et al. (1990)

Structure (SMILES)	Henry solubility constant Hcp
Clc1cc(-c2c(Cl)ccc(Cl)c2Cl)c(Cl)c(Cl)c1Cl [2,2',3,3',4,5,6'-heptachlorobiphenyl]	0.7
Clc1ccc(Cl)c(-c2cc(Cl)ccc2Cl)c1 [2,2',5,5'-tetrachlorobiphenyl]	0.049
Clc1cc(Cl)c(-c2c(Cl)cccc2Cl)cc1Cl [2,2',4,5,6'-pentachlorobiphenyl]	0.11
Clc1ccc(-c2ccccc2)cc1Cl [3,4-dichlorobiphenyl]	0.07
Clc1cccc(-c2cc(Cl)cc(Cl)c2)c1 [3,3',5-trichlorobiphenyl]	0.058
Clc1cc(Cl)cc(-c2cc(Cl)c(Cl)c(Cl)c2Cl)c1 [2,3,3',4,5,5'-hexachlorobiphenyl]	0.49
Clc1ccc(Cl)c(-c2c(Cl)c(Cl)cc(Cl)c2Cl)c1Cl [2,2',3,3',5,6,6'-heptachlorobiphenyl]	0.41
Clc1cc(Cl)cc(-c2c(Cl)c(Cl)cc(Cl)c2Cl)c1 [2,3,3',5,5',6-hexachlorobiphenyl]	0.34
Clc1cc(-c2c(Cl)c(Cl)cc(Cl)c2Cl)c(Cl)c(Cl)c1Cl [2,2',3,3',4,5,5',6'-octachlorobiphenyl]	0.99
Clc1ccc(-c2c(Cl)c(Cl)cc(Cl)c2Cl)c(Cl)c1 [2,2',3,4',5,6-hexachlorobiphenyl]	0.19
Clc1cc(Cl)c(Cl)c(-c2cc(Cl)c(Cl)cc2Cl)c1 [2,2',3,4',5,5'-hexachlorobiphenyl]	0.39
Clc1cc(Cl)c(-c2cc(Cl)c(Cl)cc2Cl)cc1Cl [2,2',4,4',5,5'-hexachlorobiphenyl]	0.43
Clc1cc(Cl)c(-c2c(Cl)c(Cl)cc(Cl)c2Cl)c(Cl)c1Cl [2,2',3,3',4,5',6,6'-octachlorobiphenyl]	0.58
Clc1cc(Cl)c(-c2ccc(Cl)c(Cl)c2Cl)cc1Cl [2,2',3,4,4',5'-hexachlorobiphenyl]	0.47
Clc1cc(Cl)c(Cl)c(-c2ccc(Cl)c(Cl)c2Cl)c1 [2,2',3,3',4,5'-hexachlorobiphenyl]	0.27
Clc1cccc(-c2cc(Cl)c(Cl)cc2Cl)c1 [2,3',4,5-tetrachlorobiphenyl]	0.099
Clc1ccc(-c2cc(Cl)c(Cl)cc2Cl)c(Cl)c1 [2,2',4,4',5-pentachlorobiphenyl]	0.13
Clc1ccc(Cl)c(-c2ccccc2)c1Cl [2,3,6-trichlorobiphenyl]	0.045
Clc1ccc(-c2ccc(Cl)c(Cl)c2)cc1 [3,4,4'-trichlorobiphenyl]	0.099

Structure (SMILES)	Henry solubility constant Hcp
Clc1cccc(-c2ccccc2Cl)c1 [2,3'-dichlorobiphenyl]	0.039
Clc1cc(Cl)c(-c2ccccc2)c(Cl)c1Cl [2,3,4,6-tetrachlorobiphenyl]	0.047
Clc1cc(Cl)c(Cl)c(-c2c(Cl)ccc(Cl)c2Cl)c1 [2,2',3,3',5,6'-hexachlorobiphenyl]	0.18
Clc1ccccc1-c1c(Cl)cccc1Cl [2,2',6-trichlorobiphenyl]	0.043
Clc1ccc(-c2cc(Cl)ccc2Cl)cc1 [2,4',5-trichlorobiphenyl]	0.052
Clc1ccc(Cl)c(-c2ccc(Cl)c(Cl)c2)c1 [2,3',4',5-tetrachlorobiphenyl]	0.099
Clc1cccc(-c2cccc(Cl)c2Cl)c1Cl [2,2',3,3'-tetrachlorobiphenyl]	0.099
Clc1ccc(Cl)c(-c2ccccc2Cl)c1 [2,2',5-trichlorobiphenyl]	0.039
Clc1cccc(Cl)c1-c1c(Cl)cccc1Cl [2,2',6,6'-tetrachlorobiphenyl]	0.049
Clc1cc(Cl)c(-c2cccc(Cl)c2Cl)cc1Cl [2,2',3,4',5'-pentachlorobiphenyl]	0.13
Clc1ccc(Cl)c(-c2cc(Cl)c(Cl)c(Cl)c2Cl)c1 [2,2',3,4,5,5'-hexachlorobiphenyl]	0.43
Clc1cc(-c2cc(Cl)c(Cl)c(Cl)c2Cl)c(Cl)c(Cl)c1Cl [2,2',3,3',4,4',5,5'-octachlorobiphenyl]	0.99
Clc1ccc(Cl)c(-c2c(Cl)ccc(Cl)c2Cl)c1Cl [2,2',3,3',6,6'-hexachlorobiphenyl]	0.11
Clc1cccc(-c2c(Cl)c(Cl)c(Cl)c(Cl)c2Cl)c1Cl [2,2',3,3',4,5,6-heptachlorobiphenyl]	0.7
Clc1cc(-c2c(Cl)cc(Cl)c(Cl)c2Cl)c(Cl)c(Cl)c1Cl [2,2',3,3',4,4',5,6'-octachlorobiphenyl]	0.99
Clc1cc(Cl)c(Cl)c(-c2c(Cl)c(Cl)cc(Cl)c2Cl)c1Cl [2,2',3,3',5,5',6,6'-octachlorobiphenyl]	0.55
Clc1ccc(-c2ccc(Cl)c(Cl)c2Cl)c(Cl)c1 [2,2',3,4,4'-pentachlorobiphenyl]	0.15
Clc1cccc(-c2cc(Cl)c(Cl)c(Cl)c2Cl)c1Cl [2,2',3,3',4,5-hexachlorobiphenyl]	0.34
Clc1cccc(-c2c(Cl)c(Cl)c(Cl)c(Cl)c2Cl)c1 [2,3,3',4,5,6-hexachlorobiphenyl]	0.49
